From ChEMBL document CHEMBL1201862, “PubChem BioAssay data set” (2004)
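Dose response: 5 concentrations. Exposure: 48 h. Format: 96-well plates. Endpoint: linear interpolation; highest concentration if not reached. The concentration for 50% growth inhibition is given as GI50.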 Activity calls are given as the source filed them. No stated cut-off is given here; in the data, active = GI50 up to about 1.1 µM and inactive = higher.

How the values were obtained:
Assay in all cases: DTP human tumour cell line panel, 48 h
SNB-75 = tested on: SNB-75
HOP-92 = tested on: HOP-92
SW-620 = tested on: SW-620
EKVX = tested on: EKVX
SK-MEL-28 = tested on: SK-MEL-28
NCI-H460 = tested on: NCI-H460
SK-MEL-5 = tested on: SK-MEL-5
ACHN = tested on: ACHN
A549 = tested on: A549
IGROV-1 = tested on: IGROV-1
UACC-257 = tested on: UACC-257
HCC 2998 = tested on: HCC 2998
CAKI-1 = tested on: CAKI-1
M14 = tested on: M14
HCT-116 = tested on: HCT-116
OVCAR-3 = tested on: OVCAR-3
PC-3 = tested on: PC-3
MDA-MB-435 = tested on: MDA-MB-435
T47D = tested on: T47D

SMILES	GI50 (SNB-75)	GI50 (HOP-92)	GI50 (SW-620)	GI50 (EKVX)	GI50 (SK-MEL-28)	GI50 (NCI-H460)	GI50 (SK-MEL-5)	GI50 (ACHN)	GI50 (A549)	GI50 (IGROV-1)	GI50 (UACC-257)	GI50 (HCC 2998)	GI50 (CAKI-1)	GI50 (M14)	GI50 (HCT-116)	GI50 (OVCAR-3)	GI50 (PC-3)	GI50 (MDA-MB-435)	GI50 (T47D)
Cc1cccc(C)c1N1C(=O)C(=O)C(c2nc3ccccc3s2)/C(=N\N)C1=O (configuration not stated)	> 100 µM (inactive)	> 100 µM (inactive)	> 100 µM (inactive)	47 µM (inactive)	> 100 µM (inactive)	> 100 µM (inactive)	> 100 µM (inactive)	62.1 µM (inactive)	> 100 µM (inactive)	> 100 µM (inactive)	> 100 µM (inactive)	> 100 µM (inactive)	> 100 µM (inactive)	> 100 µM (inactive)	> 100 µM (inactive)	> 100 µM (inactive)			
CN(C)CCC[N+]1=Nc2cccc3cccc(c23)N1	> 100 µM (inactive)	66.7 µM (inactive)	10.4 µM (inactive)	> 100 µM (inactive)	56.2 µM (inactive)	35.6 µM (inactive)	14.1 µM (inactive)	50.7 µM (inactive)	> 100 µM (inactive)	31.4 µM (inactive)	48.5 µM (inactive)	24.2 µM (inactive)	37.1 µM (inactive)	21.1 µM (inactive)	44.6 µM (inactive)	> 100 µM (inactive)			
CCOC(=O)C1N(S(=O)(=O)c2ccc(C)cc2)CCC12c1ccccc1NC2c1ccc(OC)c(OC)c1 (configuration not stated)	> 100 µM (inactive)	10.7 µM (inactive)	27.4 µM (inactive)	> 100 µM (inactive)	> 100 µM (inactive)	> 100 µM (inactive)	> 100 µM (inactive)	> 100 µM (inactive)	> 100 µM (inactive)	14.6 µM (inactive)	> 100 µM (inactive)	> 100 µM (inactive)	> 100 µM (inactive)	> 100 µM (inactive)	60.7 µM (inactive)	> 100 µM (inactive)			
O=C1C=C(O)C(=Cc2c(O)cc(O)cc2O)C(O)=C1	> 100 µM (inactive)	> 100 µM (inactive)	> 100 µM (inactive)	> 100 µM (inactive)		> 100 µM (inactive)	> 100 µM (inactive)		> 100 µM (inactive)	> 100 µM (inactive)	> 100 µM (inactive)	> 100 µM (inactive)	> 100 µM (inactive)	> 100 µM (inactive)	> 100 µM (inactive)	> 100 µM (inactive)			
CC(C)=CC(=O)CC(=O)C(=O)NCCNC(=O)C(=O)CC(=O)C=C(C)C	> 50 µM (inactive)	> 50 µM (inactive)	> 50 µM (inactive)	> 50 µM (inactive)	> 50 µM (inactive)	> 50 µM (inactive)		> 50 µM (inactive)	> 50 µM (inactive)	> 50 µM (inactive)	> 50 µM (inactive)	> 50 µM (inactive)	> 50 µM (inactive)	> 50 µM (inactive)	> 50 µM (inactive)	> 50 µM (inactive)			
O=C(CCC(=O)Nc1ccc(Cl)cc1)CC(=O)c1ccc2ccccc2c1	> 100 µM (inactive)	> 100 µM (inactive)	> 100 µM (inactive)	> 100 µM (inactive)	> 100 µM (inactive)	> 100 µM (inactive)	> 100 µM (inactive)	> 100 µM (inactive)	> 100 µM (inactive)	> 100 µM (inactive)	> 100 µM (inactive)	> 100 µM (inactive)	> 100 µM (inactive)	> 100 µM (inactive)	> 100 µM (inactive)	> 100 µM (inactive)			
COc1cc2[nH]c(=O)c3cc(C)cc4c(Cl)nc(c1OC)c2c43	22.9 µM (inactive)	35.9 µM (inactive)	> 100 µM (inactive)	18.1 µM (inactive)	> 100 µM (inactive)	23.4 µM (inactive)	55.6 µM (inactive)	40.6 µM (inactive)	45.7 µM (inactive)	67.8 µM (inactive)	> 100 µM (inactive)	> 100 µM (inactive)	56.2 µM (inactive)	> 100 µM (inactive)	40.1 µM (inactive)	> 100 µM (inactive)	> 100 µM (inactive)	57.3 µM (inactive)	
COC(=O)C1=C(O)C(C(=O)OC)[C@]2(O)[C@H](C(=O)OC)[C@H]1C[C@@H](c1ccc([N+](=O)[O-])cc1)[C@H]2C(=O)OC (some centres not stated)	42.3 µM (inactive)		16.6 µM (inactive)	21.5 µM (inactive)	16.2 µM (inactive)	26.4 µM (inactive)	15.3 µM (inactive)	18.1 µM (inactive)	21.3 µM (inactive)	12.8 µM (inactive)	34.1 µM (inactive)		28.6 µM (inactive)	15.7 µM (inactive)	14.7 µM (inactive)	25.1 µM (inactive)	13.9 µM (inactive)	11 µM (inactive)	38.2 µM (inactive)
Cc1ccc(C2=NO[C@@H]3C(=O)N(c4ccc(Cc5ccc(N6C(=O)[C@H]7C(c8ccc(C)cc8)=NO[C@H]7C6=O)cc5)cc4)C(=O)[C@H]23)cc1	79.4 µM (inactive)	> 100 µM (inactive)	> 100 µM (inactive)	> 100 µM (inactive)	> 100 µM (inactive)	> 100 µM (inactive)	> 100 µM (inactive)	> 100 µM (inactive)	> 100 µM (inactive)	> 100 µM (inactive)	38.7 µM (inactive)	> 100 µM (inactive)	> 100 µM (inactive)	> 100 µM (inactive)		> 100 µM (inactive)			
C/C(=C1/CCCC2(N=NCC2c2ccccc2)C1=O)c1ccccc1 (configuration not stated)	30.3 µM (inactive)	24.2 µM (inactive)	69.8 µM (inactive)	28.3 µM (inactive)	26.9 µM (inactive)	26.3 µM (inactive)	12.7 µM (inactive)	31.8 µM (inactive)	20.4 µM (inactive)	42.4 µM (inactive)	22.1 µM (inactive)	38.2 µM (inactive)		13.8 µM (inactive)	18.7 µM (inactive)	17.6 µM (inactive)			
Cc1ccccc1Cn1nc2ccccc2cc1=O	22.1 µM (inactive)	> 100 µM (inactive)	> 100 µM (inactive)	> 100 µM (inactive)	> 100 µM (inactive)	> 100 µM (inactive)	> 100 µM (inactive)	> 100 µM (inactive)	> 100 µM (inactive)	> 100 µM (inactive)	> 100 µM (inactive)	> 100 µM (inactive)	> 100 µM (inactive)	> 100 µM (inactive)	> 100 µM (inactive)	> 100 µM (inactive)			
Fc1cccc2c1cc1ccc3cccc4ccc2c1c34	> 100 µM (inactive)	> 100 µM (inactive)	> 100 µM (inactive)	> 100 µM (inactive)	> 100 µM (inactive)		> 100 µM (inactive)	> 100 µM (inactive)	> 100 µM (inactive)	> 100 µM (inactive)	95.7 µM (inactive)	> 100 µM (inactive)	> 100 µM (inactive)	> 100 µM (inactive)	> 100 µM (inactive)	> 100 µM (inactive)			
C/C(=N\NC(N)=S)c1ccc(C)cc1C	47.5 µM (inactive)	> 100 µM (inactive)	> 100 µM (inactive)	8.41 µM (inactive)		64.7 µM (inactive)	21.7 µM (inactive)	> 100 µM (inactive)	53.5 µM (inactive)	48.8 µM (inactive)	38.4 µM (inactive)	> 100 µM (inactive)	> 100 µM (inactive)	> 100 µM (inactive)	> 100 µM (inactive)	75.7 µM (inactive)			
C1OC1CN1CCN(CC2CO2)CC1 (configuration not stated)	38.2 µM (inactive)	80.9 µM (inactive)	> 100 µM (inactive)	> 100 µM (inactive)	> 100 µM (inactive)	6.53 µM (inactive)	> 100 µM (inactive)	12.4 µM (inactive)	17.5 µM (inactive)	> 100 µM (inactive)	> 100 µM (inactive)	> 100 µM (inactive)	26.7 µM (inactive)	54.6 µM (inactive)	72.8 µM (inactive)	> 100 µM (inactive)			
C#CCNC(=O)NCCCC(NC(C)=O)C(=O)NCc1ccccc1 (configuration not stated)	> 100 µM (inactive)	> 100 µM (inactive)	> 100 µM (inactive)	> 100 µM (inactive)	> 100 µM (inactive)	> 100 µM (inactive)	> 100 µM (inactive)	> 100 µM (inactive)	> 100 µM (inactive)	> 100 µM (inactive)	> 100 µM (inactive)	> 100 µM (inactive)	> 100 µM (inactive)	> 100 µM (inactive)	> 100 µM (inactive)	> 100 µM (inactive)			
COC1[C@H](NC(=O)OC(C)(C)C)C(=O)N1Cc1ccccc1 (some centres not stated)	> 100 µM (inactive)	74.6 µM (inactive)	> 100 µM (inactive)	> 100 µM (inactive)	> 100 µM (inactive)	> 100 µM (inactive)	> 100 µM (inactive)	> 100 µM (inactive)	> 100 µM (inactive)	> 100 µM (inactive)	> 100 µM (inactive)	> 100 µM (inactive)		> 100 µM (inactive)	> 100 µM (inactive)	> 100 µM (inactive)			
COc1cc2c(c(OC)c1OC)-c1ccc(SC)c(=O)cc1[C@@H](NCc1ccc(F)cc1)CC2	12.7 µM (inactive)	< 0.0075 µM (active)	< 0.0075 µM (active)	0.0693 µM (active)	8.77 µM (inactive)	< 0.0075 µM (active)	< 0.0075 µM (active)	< 0.0075 µM (active)	< 0.0075 µM (active)	< 0.0075 µM (active)	0.0117 µM (active)	< 0.0075 µM (active)	1.69 µM (inactive)	< 0.0075 µM (active)	< 0.0075 µM (active)	< 0.0075 µM (active)			
